Compound: CS(=O)(=O)CCNCc1ccc(-c2ccc3ncnc(Nc4ccc(OCc5cccc(F)c5)c(Cl)c4)c3c2)o1 [Lapatinib]
Test: relative viability (nuclei count vs DMSO), 5 days (fraction); higher = more cells survive
Procedure, shortened: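 In 1536-well plates, lung cancer cell lines rested overnight at 37 °C before five library-drug doses (not always all listed), √10 apart, were pinned onto vehicle-anchored plates. Nuclei were counted with MetaXpress from 4× Hoechst images taken after 5 days without medium change. Viability compares treated-well with vehicle-well nuclei as a median over plates, and plates needed control CV below 25% plus at least one doubling to pass.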

Cell Line	relative viability (0.02 µM)	relative viability (0.06325 µM)	relative viability (0.2 µM)	relative viability (0.6325 µM)	relative viability (2 µM)	relative viability (2 µM, anchor plate)
201T	0.713	0.802	0.963	0.979	0.887	1.04
A549	0.982	0.875	0.867	0.957	0.861	0.993
A-427		0.978	1	0.954	0.963	1.05
ABC-1	0.721	0.793	0.939	1.04	0.912	1.18
BEN	0.793	0.907	0.935	1	0.962	0.74
CAL-12T	0.763	0.978	0.909	0.776	0.678	0.681
COR-L23	0.978	1	1.11	0.919	1.02	0.934
COR-L 105	0.828	0.8	0.857	0.598	0.381	0.367
Calu-6	0.972	0.971	1.02	1.03	0.926	1.04
ChaGo-K-1	0.789	0.943	0.945	1	0.797	
EBC-1	0.993	0.979	0.945	0.971		
EKVX	0.645	0.755	0.943	0.811	0.336	0.216
EMC-BAC-2		0.8	0.734	0.985	1.04	0.917
EPLC-272H		0.733	0.959	1	0.783	0.993
H3255	0.908	0.936	0.938	0.889	0.489	0.25
HARA	0.52	0.749	0.943	0.93	0.755	0.77
HCC-15		0.847	1.06	1.01	0.919	0.836
HCC-44	0.602	0.997	0.983	1.03	0.893	1.02
HCC-78		0.734	0.922	0.935	0.793	0.801
HCC-366		1.02	0.981	1.02	0.99	1.02
HCC-827	0.91	0.983	1.05	1		

Cell Line	relative viability (0.02 µM)	relative viability (0.06325 µM)	relative viability (0.2 µM)	relative viability (0.6325 µM)	relative viability (2 µM)	relative viability (2 µM, anchor plate)
HOP-62	0.7	1.04	1.01	1.02	1.01	1.04
IA-LM	0.816	0.977	1.04	0.902	0.983	0.848
LC-2-ad		0.895	0.984	0.983	0.896	0.967
LCLC-97TM1			1.08	1	1.03	1.01
LCLC-103H	0.779	0.951	0.997	1.02	0.975	
LK-2	0.852		0.914	1.13	1.11	1.02
LOU-NH91	0.569	0.785	0.844	0.844	0.74	0.799
LU99A	0.883	0.757	0.852	0.871	0.897	1.03
LXF-289	0.923	0.993	0.96	0.957	0.869	0.915
NCI-H23			1.02	1.06	0.938	1.11
NCI-H322M	0.886	0.717	0.896	0.882	0.733	0.598
NCI-H358	0.693	0.478	0.611	0.569	0.335	0.474
NCI-H441		0.735	0.995	1.09	1.36	
NCI-H460	0.952	0.984	0.969	0.969	0.868	0.988
NCI-H520	0.987	0.93	1.03	1.09	0.998	0.848
NCI-H522		0.746	0.855	1.01	0.791	
NCI-H596		0.939	0.967	1.14	0.919	1.03
NCI-H647	0.776	0.897	0.767	1.02	0.806	1.06
NCI-H650		0.912	0.919	1.04	0.831	0.926
NCI-H661	0.987	0.919	0.957	0.822	0.705	0.52

Source: the supplement of paper PMC10307832
